For 28 molecules, IC50 results are on record in patent US7858621B2 (Amorepacific Corporation, priority 2006, dated 2010).

Some results are limits rather than exact numbers.

T1 sequence (O35433 whole entry): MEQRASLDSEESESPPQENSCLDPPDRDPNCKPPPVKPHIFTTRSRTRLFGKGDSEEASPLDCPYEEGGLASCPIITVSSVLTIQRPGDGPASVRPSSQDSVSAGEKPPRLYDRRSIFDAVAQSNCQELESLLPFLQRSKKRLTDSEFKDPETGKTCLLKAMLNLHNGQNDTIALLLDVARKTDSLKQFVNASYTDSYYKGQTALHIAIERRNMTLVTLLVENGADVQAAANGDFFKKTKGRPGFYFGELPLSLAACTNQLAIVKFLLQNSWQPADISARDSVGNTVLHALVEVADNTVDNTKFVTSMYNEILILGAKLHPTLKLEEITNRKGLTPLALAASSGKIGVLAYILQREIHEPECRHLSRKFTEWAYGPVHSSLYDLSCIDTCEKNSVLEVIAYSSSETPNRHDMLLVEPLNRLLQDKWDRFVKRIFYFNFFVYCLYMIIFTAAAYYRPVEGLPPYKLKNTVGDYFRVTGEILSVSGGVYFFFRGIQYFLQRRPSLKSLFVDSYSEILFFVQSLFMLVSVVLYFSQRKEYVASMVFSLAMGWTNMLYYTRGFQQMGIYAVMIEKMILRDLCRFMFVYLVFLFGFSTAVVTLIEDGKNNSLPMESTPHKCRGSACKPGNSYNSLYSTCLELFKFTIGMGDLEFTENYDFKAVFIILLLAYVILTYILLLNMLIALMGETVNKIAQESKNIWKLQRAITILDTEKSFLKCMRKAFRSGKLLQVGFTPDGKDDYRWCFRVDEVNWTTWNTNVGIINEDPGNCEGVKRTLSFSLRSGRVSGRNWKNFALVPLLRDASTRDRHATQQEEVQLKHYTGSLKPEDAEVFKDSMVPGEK

The test concerns the target T1, vanilloid receptor (Rattus norvegicus, UniProt O35433).
T1 construct: DRG nerve cells from the primary culture of 2 days were equilibrated; endogenous in cells; host or cells: primary culture of dorsal root ganglion neurons from neonatal SD rats
In words: 45Ca influx test in cultured neonatal rat DRG neurons, inhibition of capsaicin response. The class given is cell-based. Conditions: neonatal rat DRG neurons, capsaicin 0.5 μM, 45Ca influx; read-out: Antagonist Calcium Uptake Test (IC50). How it is done: 1) Separation of Spinal Dorsal Root Ganglia (DRG) in Newborn Rats and Primary Culture Thereof
Neonatal (2-3 day old or younger than 2-3 day old) SD rats were put in ice for 5 minutes to anesthetize and disinfected with 70% ethanol. […] The DRG were incubated sequentially at 37° C. for 30 mins in 200 U/ml collagenase and 2.5 mg/ml trypsin, separately. The ganglia were washed twice with DME/F12 medium supplemented with 10% horse serum, triturated through a fire-polished Pasteur pipette, filtered through Nitex 80 membrane to obtain single cell suspension and the suspension was washed once more. This was subjected to centrifugation, then resuspended in cell culture medium at certain level of cell density. As the cell culture medium, DME/F12 medium supplemented with 10% horse serum was diluted with identical medium conditioned by C6 glioma cells 2 days on a confluent monolayer (1:1), and NGF (Nerve Growth Factor) was added to adjust 200 ng/ml as final concentration. After the cells were grown 2 days in medium where cytosine arabinoside (Ara-C, 100 μM) was added to kill dividing nonneuronal cells, medium was changed to one without Ara-C. The resuspended cells were plated at a density of 1500-2000 neurons/well onto Terasaki plates previously coated with 10 μg/ml poly-D-ornithine.
2) ^45Ca Influx Experiments
DRG nerve cells from the primary culture of 2 days were equilibrated by washing 4 times with HEPES (10 mM, pH 7.4)-buffered Ca^2+, Mg^2+-free HBSS (H-HBSS). The solution in each well was removed from the individual well. Medium containing the test compound plus capsaicin (final concentration 0.5 μM) and ^45Ca (final concentration 10 μCi/ml) in H-HBSS was added to each well and incubated at room temperature for 10 mins. Terasaki plates were washed five times with H-HBSS and dried at room temperature. To each well, 0.3% SDS (10 μl) was added to elute ^45Ca. After the addition of scintillation cocktail of into each well, the amount of ^45Ca influx into neuron was measured by counting radioactivity.
With `CS(=O)(=O)Nc1ccc(CNC(=O)/C=C/c2ccc(C(F)(F)F)nc2Cl)cc1F` [Example 44, 3-(2-Chloro-6-trifluoromethyl-pyridin-3-yl)-N-(3-fluoro-4-methanesulfonylamino-benzyl)-acrylamide], the concentration for half-maximal inhibition (IC50) is > 10000 nM.

`CCN(CC)c1nc(C(F)(F)F)ccc1/C=C/C(=O)NCc1ccc(NS(C)(=O)=O)c(F)c1` [Example 47, 3-(2-Diethylamino-6-trifluoromethyl-pyridin-3-yl)-N-(3-fluoro-4-methanesulfonylamino-benzyl)-acrylamide]: the half-maximal inhibitory concentration (IC50) is 960 nM. Regarding `C#Cc1cc(CNC(=O)/C=C/c2cccnc2N2CCOCC2)cc(F)c1NS(C)(=O)=O` [Example 49, N-(3-Ethynyl-5-fluoro-4-methanesulfonylamino-benzyl)-3-(2-morpholin-4-yl-pyridin-3-yl)-acrylamide], the half-inhibitory concentration (IC50) is 5400 nM.

As for `CS(=O)(=O)Nc1ccc(CNC(=O)/C=C/c2cccnc2N2CCOCC2)cc1F` [Example 50, N-(5-fluoro-4-methanesulfonylamino-benzyl)-3-(2-morpholin-4-yl-pyridin-3-yl)-acrylamide], the IC50 is > 10000 nM.

With `C#Cc1cc(CNC(=O)/C=C/c2ccc(C(C)(C)C)nc2Cl)cc(F)c1NS(C)(=O)=O` [Example 51, 3-(6-tert-Butyl-2-chloro-pyridin-3-yl)-N-(3-ethynyl-5-fluoro-4-methanesulfonylamino-benzyl)-acrylamide], the half-maximal inhibitory concentration (IC50) came to 140 nM. The same measure for `CS(=O)(=O)Nc1ccc(CNC(=O)/C=C/c2cnc(Cl)cc2C(F)(F)F)cc1F` [Example 53, 3-(6-Chloro-4-trifluoromethyl-pyridin-3-yl)-N-(3-fluoro-4-methanesulfonylamino-benzyl)-acrylamide]: > 10000 nM; for `CS(=O)(=O)Nc1ccc(CNC(=O)/C=C/c2ccc(C(F)(F)F)nc2N2CCCC2)cc1F` [Example 55, N-(3-Fluoro-4-methanesulfonylamino-benzyl)-3-(2-pyrrolidin-1-yl-6-trifluoromethyl-pyridin-3-yl)-acrylamide]: 1400 nM; for `CS(=O)(=O)Nc1ccc(CNC(=O)/C=C/c2ccc(C(F)(F)F)nc2N2CCC(O)C2)cc1F` (stereo not shown) [Example 56, N-(3-Fluoro-4-methanesulfonylamino-benzyl)-3-[2-(3-hydroxy-pyrrolidin-1-yl)-6-trifluoromethyl-pyridin-3-yl]-acrylamide]: > 10000 nM. The same measure for `CS(=O)(=O)Nc1ccc(CNC(=O)/C=C/c2ccc(C(F)(F)F)nc2)cc1F` [Example 58, N-(3-Fluoro-4-methanesulfonylamino-benzyl)-3-(6-trifluoromethyl-pyridin-3-yl)-acrylamide]: > 10000 nM. Consider `C#Cc1cc(CNC(=O)/C=C/c2ccc(C(C)(C)C)nc2N2CCOCC2)cc(F)c1NS(C)(=O)=O` [Example 59, 3-(6-tert-Butyl-2-morpholin-4-yl-pyridin-3-yl)-N-(3-ethynyl-5-fluoro-4-methanesulfonylamino-benzyl)-acrylamide], for which the 50% inhibitory concentration (IC50) stood at 210 nM. The same measure for `COc1nc(C(F)(F)F)ccc1/C=C/C(=O)NCc1ccc(NS(C)(=O)=O)c(F)c1` [Example 60, N-(3-Fluoro-4-methanesulfonylamino-benzyl)-3-(2-methoxy-6-trifluoromethyl-pyridin-3-yl)-acrylamide]: 2100 nM; for `CS(=O)(=O)Nc1ccc(CNC(=O)/C=C/c2ccc(C(F)(F)F)nc2NCCO)cc1F` [Example 61, N-(3-Fluoro-4-methanesulfonylamino-benzyl)-3-[2-(2-hydroxy-ethylamino)-6-trifluoromethyl-pyridin-3-yl]-acrylamide]: 4900 nM; for `C#Cc1cc(CNC(=O)/C=C/c2ccc(C(F)(F)F)nc2N2CCCC2)cc(F)c1NS(C)(=O)=O` [Example 62, N-(3-Ethynyl-5-fluoro-4-methanesulfonylamino-benzyl)-3-(2-pyrrolidin-1-yl-6-trifluoromethyl-pyridin-3-yl)-acrylamide]: 260 nM. `CCCCOc1nc(C(F)(F)F)ccc1/C=C/C(=O)NCc1ccc(NS(C)(=O)=O)c(F)c1` [Example 63, 3-(2-Butoxy-6-trifluoromethyl-pyridin-3-yl)-N-(3-fluoro-4-methanesulfonylamino-benzyl)-acrylamide]: the IC50 stood at 560 nM.

As for `C#Cc1cc(CNC(=O)/C=C/c2ccc(C(F)(F)F)nc2N2CCN(C)CC2)cc(F)c1NS(C)(=O)=O` [Example 64, N-(3-Ethynyl-5-fluoro-4-methanesulfonylamino-benzyl)-3-[2-(4-methyl-piperazin-1-yl)-6-trifluoromethyl-pyridin-3-yl]-acrylamide], the IC50 turned out to be 6500 nM. For the molecule `C#Cc1cc(CNC(=O)/C=C/c2ccc(C(F)(F)F)nc2OCCCC)cc(F)c1NS(C)(=O)=O` [Example 66, 3-(2-Butoxy-6-trifluoromethyl-pyridin-3-yl)-N-(3-ethynyl-5-fluoro-4-methanesulfonylamino-benzyl)-acrylamide], the IC50 was determined as 250 nM. In the case of `C#Cc1cc(CNC(=O)/C=C/c2ccc(C(F)(F)F)nc2C)cc(F)c1NS(C)(=O)=O` [Example 68, N-(3-Ethynyl-5-fluoro-4-methanesulfonylaminobenzyl)-3-(2-methyl-6-trifluoromethylpyridin-3-yl)acrylamide] it was 1300 nM; in that of `Cc1nc(C(F)(F)F)ccc1/C=C/C(=O)NCc1ccc(NS(C)(=O)=O)c(F)c1` [Example 69, N-(3-Fluoro-4-methanesulfonylaminobenzyl)-3-(2-methyl-6-trifluoromethylpyridin-3-yl)acrylamide], 3200 nM; in that of `C#Cc1cc(CNC(=O)/C=C/c2ccc(C(F)(F)F)nc2OC(C)C)cc(F)c1NS(C)(=O)=O` [Example 70, 3-(2-Isopropoxy-6-trifluoromethyl-pyridin-3-yl)-N-(3-ethynyl-5-fluoro-4-methanesulfonylamino-benzyl)-acrylamide], 130 nM. Take `C#Cc1cc(CNC(=O)/C=C/c2ccc(C(F)(F)F)nc2N2CCC[C@H]2C(=O)OCc2ccccc2)cc(F)c1NS(C)(=O)=O` [Example 71, N-(3-Ethynyl-5-fluoro-4-methanesulfonylamino-benzyl)-3-[2-(2-benzyloxycarbonyl-pyrrolidin-1-yl)-6-trifluoromethyl-pyridin-3-yl]-acrylamide]: the IC50 was > 10000 nM.

As for `C#Cc1cc(CNC(=O)/C=C/c2ccc(C(F)(F)F)nc2NCCCC)cc(F)c1NS(C)(=O)=O` [Example 72, 3-(2-Butylamino-6-trifluoromethyl-pyridin-3-yl)-N-(3-ethynyl-5-fluoro-4-methanesulfonylamino-benzyl)-acrylamide], the IC50 was 160 nM. In the case of `C#Cc1cc(CNC(=O)/C=C/c2ccc(C(F)(F)F)nc2NC2CCCC2)cc(F)c1NS(C)(=O)=O` [Example 73, 3-(2-Cyclopentylamino-6-trifluoromethyl-pyridin-3-yl)-N-(3-ethynyl-5-fluoro-4-methanesulfonylamino-benzyl)-acrylamide] it was 150 nM; in that of `C#Cc1cc(CNC(=O)/C=C/c2ccc(C(F)(F)F)nc2OCC(C)C)cc(F)c1NS(C)(=O)=O` [Example 74, N-(3-Ethynyl-5-fluoro-4-methanesulfonylamino-benzyl)-3-(2-isobutoxy-6-trifluoromethyl-pyridin-3-yl)-acrylamide], 510 nM. For the molecule `C#Cc1cc(CNC(=O)/C=C/c2cc(Cl)c(C(F)(F)F)nc2CCCC)cc(F)c1NS(C)(=O)=O` [Example 76, 3-(2-Butyl-5-chloro-6-trifluoromethyl-pyridin-3-yl)-N-(3-ethynyl-5-fluoro-4-methanesulfonylamino-benzyl)-acrylamide], the IC50 turned out to be 200 nM. Regarding `C#Cc1cc(CNC(=O)/C=C/c2ccc(C(F)(F)F)nc2OC(C)CC)cc(F)c1NS(C)(=O)=O` (stereo not shown) [Example 77, 3-(2-sec-Butoxy-6-trifluoromethyl-pyridin-3-yl)-N-(3-ethynyl-5-fluoro-4-methanesulfonylamino-benzyl)-acrylamide], the concentration for half-maximal inhibition (IC50) turned out to be 340 nM. For `C#Cc1cc(CNC(=O)/C=C/c2ccc(C(F)(F)F)nc2Oc2ccccc2)cc(F)c1NS(C)(=O)=O` [Example 78, N-(3-Ethynyl-5-fluoro-4-methanesulfonylamino-benzyl)-3-(2-phenoxy-6-trifluoromethyl-pyridin-3-yl)-acrylamide], the IC50 was found to be 120 nM. Take `C#Cc1cc(CNC(=O)/C=C/c2ccc(C(F)(F)F)nc2OC2CCOC2)cc(F)c1NS(C)(=O)=O` (stereo not shown) [Example 79, 3-[2-(Tetrahydro-furan-3-yloxy)-6-trifluoromethyl-pyridin-3-yl]-N-(3-ethynyl-5-fluoro-4-methanesulfonylamino-benzyl)-acrylamide]: the IC50 turned out to be 430 nM.

Consider `C#Cc1cc(CNC(=O)/C=C/c2ccc(C(F)(F)F)nc2-n2cccn2)cc(F)c1NS(C)(=O)=O` [Example 80, N-(3-Ethynyl-5-fluoro-4-methanesulfonylamino-benzyl)-3-[2-pyrazol-1-yl-6-trifluoromethyl-pyridin-3-yl]-acrylamide], for which the concentration for half-maximal inhibition (IC50) was 3100 nM.
